# Source: patent US9914731B2, “Pyrazolo[1,5-a]pyridine derivatives and methods of their use” (Ignyta, Inc., priority 2013, dated 2018)
# How the values were obtained:
# [1] = biological target: recombinant human baculovirus-expressed AXL (Homo sapiens (Human), UniProt P30530); assay: AXL kinase assay (HTRF KinEASE); assay type: biochemical; conditions: average of two or more determinations
# [2] = biological target: recombinant human baculovirus-expressed cMET (Homo sapiens (Human), UniProt P08581); assay: c-MET kinase assay (HTRF KinEASE); assay type: biochemical; conditions: average of two or more determinations; read-out: c-MET IC50
IC50 [1],IC50 [2],Compound
< 10 nM,< 10 nM,"O=C(Nc1ccc(Oc2cc(-c3cccnc3)cn3nccc23)c(F)c1)c1cccn(-c2ccc(F)cc2)c1=O [Example 25, 1-(4-Fluoro-phenyl)-2-oxo-1,2-dihydro-pyridine-3-carboxylic acid 3-fluoro-4-(6-pyridin-3-yl-pyrazolo[1,5-a]pyridin-4-yloxy)-phenyl-amide]"
< 10 nM,< 10 nM,"O=C(Nc1ccc(Oc2cc(-c3ccc(N4CCOCC4)nc3)cn3nccc23)c(F)c1)c1cccn(-c2ccc(F)cc2)c1=O [Example 26, 1-(4-Fluoro-phenyl)-2-oxo-1,2-dihydro-pyridine-3-carboxylic acid {3-fluoro-4-[6-(6-morpholin-4-yl-pyridin-3-yl)-pyrazolo[1,5-a]pyridin-4-yloxy]-phenyl}-amide]"
< 10 nM,< 10 nM,"O=C(Nc1ccc(Oc2cc(-c3ccncc3)cn3nccc23)c(F)c1)c1cccn(-c2ccc(F)cc2)c1=O [Example 27, 1-(4-Fluoro-phenyl)-2-oxo-1,2-dihydro-pyridine-3-carboxylic acid [3-fluoro-4-(6-pyridin-4-yl-pyrazolo[1,5-a]pyridin-4-yloxy)-phenyl]-amide]"
< 10 nM,< 10 nM,"Cn1cc(-c2cc(Oc3ccc(NC(=O)c4cccn(-c5ccc(F)cc5)c4=O)cc3F)c3ccnn3c2)cn1 [Example 29, 1-(4-Fluoro-phenyl)-2-oxo-1,2-dihydro-pyridine-3-carboxylic acid {3-fluoro-4-[6-(1-methyl-1H-pyrazol-4-yl)-pyrazolo[1,5-a]pyridin-4-yloxy]-phenyl}-amide]"
< 10 nM,< 10 nM,"Cn1cc(-c2cc(Oc3ccc(NC(=O)c4c[nH]c(=O)n(-c5ccc(F)cc5)c4=O)cc3F)c3ccnn3c2)cn1 [Example 30, 3-(4-Fluoro-phenyl)-2,4-dioxo-1,2,3,4-tetrahydro-pyrimidine-5-carboxylic acid {3-fluoro-4-[6-(1-methyl-1H-pyrazol-4-yl)-pyrazolo[1,5-a]pyridin-4-yloxy]-phenyl}-amide]"
< 10 nM,< 10 nM,"CCOCCn1cc(C(=O)Nc2ccc(Oc3cc(-c4cnn(C)c4)cn4nccc34)c(F)c2)c(=O)n(-c2ccc(F)cc2)c1=O [Example 31, 1-(2-Ethoxy-ethyl)-3-(4-fluoro-phenyl)-2,4-dioxo-1,2,3,4-tetrahydro-pyrimidine-5-carboxylic acid {3-fluoro-4-[6-(1-methyl-1H-pyrazol-4-yl)-pyrazolo[1,5-a]pyridin-4-yloxy]-phenyl}-amide]"
< 10 nM,< 10 nM,"CCn1cc(C(=O)Nc2ccc(Oc3cc(-c4cnn(C)c4)cn4nccc34)c(F)c2)c(=O)n(-c2ccc(F)cc2)c1=O [Example 33, 1-Ethyl-3-(4-fluoro-phenyl)-2,4-dioxo-1,2,3,4-tetrahydro-pyrimidine-5-carboxylic acid {3-fluoro-4-[6-(1-methyl-1H-pyrazol-4-yl)-pyrazolo[1,5-a]pyridin-4-yloxy]-phenyl}-amide]"
< 10 nM,< 10 nM,"Cc1ccc(C(=O)Nc2ccc(Oc3cc(-c4cnn(C)c4)cn4nccc34)c(F)c2)c(=O)n1-c1ccc(F)cc1 [Example 34, 1-(4-Fluoro-phenyl)-6-methyl-2-oxo-1,2-dihydro-pyridine-3-carboxylic acid {3-fluoro-4-[6-(1-methyl-1H-pyrazol-4-yl)-pyrazolo[1,5-a]pyridin-4-yloxy]-phenyl}-amide]"
< 10 nM,< 10 nM,"Cc1c(-c2cc(Oc3ccc(NC(=O)c4cccn(-c5ccc(F)cc5)c4=O)cc3F)c3ccnn3c2)cnn1C [Example 39, 1-(4-Fluoro-phenyl)-2-oxo-1,2-dihydro-pyridine-3-carboxylic acid {4-[6-(1,5-dimethyl-1H-pyrazol-4-yl)-pyrazolo[1,5-a]pyridin-4-yloxy]-3-fluoro-phenyl}-amide]"
< 10 nM,< 10 nM,"O=C(Nc1ccc(Oc2cc(-c3cn[nH]c3)cn3nccc23)c(F)c1)c1cccn(-c2ccc(F)cc2)c1=O [Example 42, 1-(4-Fluoro-phenyl)-2-oxo-1,2-dihydro-pyridine-3-carboxylic acid {3-fluoro-4-[6-(1H-pyrazol-4-yl)-pyrazolo[1,5-a]pyridine-4-yloxy]-phenyl}-amide]"
< 10 nM,< 10 nM,"Cc1[nH]ncc1-c1cc(Oc2ccc(NC(=O)c3cccn(-c4ccc(F)cc4)c3=O)cc2F)c2ccnn2c1 [Example 44, 1-(4-Fluoro-phenyl)-2-oxo-1,2-dihydro-pyridine-3-carboxylic acid{3-fluoro-4-[6-(5-methyl-1H-pyrazol-4-yl)-pyrazolo[1,5-a]pyridin-4-yloxy]-phenyl}-amide]"
< 10 nM,< 10 nM,"Cc1ccc(C(=O)Nc2ccc(Oc3cc(-c4cnco4)cn4nccc34)c(F)c2)c(=O)n1-c1ccc(F)cc1 [Example 51, 1-(4-Fluoro-phenyl)-6-methyl-2-oxo-1,2-dihydro-pyridine-3-carboxylic acid [3-fluoro-4-(6-oxazol-5-yl-pyrazolo[1,5-a]pyridin-4-yloxy)-phenyl]-amide]"
< 10 nM,< 10 nM,"CCn1cc(C(=O)Nc2ccc(Oc3cc(-c4cnsc4)cn4nccc34)c(F)c2)c(=O)n(-c2ccc(F)cc2)c1=O [Example 54, 1-Ethyl-3-(4-fluoro-phenyl)-2,4-dioxo-1,2,3,4-tetrahydro-pyrimidine-5-carboxylic acid[3-fluoro-4-(6-isothiazol-4-yl-pyrazolo[1,5-a]pyridin-4-yloxy)-phenyl]-amide]"
< 10 nM,< 10 nM,"CC(C)n1cc(C(=O)Nc2ccc(Oc3cc(-c4cnsc4)cn4nccc34)c(F)c2)c(=O)n(-c2ccc(F)cc2)c1=O [Example 55, 3-(4-Fluoro-phenyl)-1-isopropyl-2,4-dioxo-1,2,3,4-tetrahydro-pyrimidine-5-carboxylic acid[3-fluoro-4-(6-isothiazol-4-yl-pyrazolo[1,5-a]pyridin-4-yloxy)-phenyl]-amide]"
< 10 nM,< 10 nM,"O=C(Nc1ccc(Oc2cc(N3CCOCC3)cn3nccc23)c(F)c1)c1cccn(-c2ccc(F)cc2)c1=O [Example 56, 1-(4-Fluoro-phenyl)-2-oxo-1,2-dihydro-pyridine-3-carboxylic acid[3-fluoro-4-(6-morpholin-4-yl-pyrazolo[1,5-a]pyridin-4-yloxy)-phenyl]-amide]"
< 10 nM,10 to 100 nM,"Cc1ccc(C(=O)Nc2ccc(Oc3cc(N4CCC(=O)CC4)cn4nccc34)c(F)c2)c(=O)n1-c1ccc(F)cc1 [Example 59, 1-(4-Fluoro-phenyl)-6-methyl-2-oxo-1,2-dihydro-pyridine-3-carboxylic acid {3-fluoro-4-[6-(4-oxo-piperidin-1-yl)-pyrazolo[1,5-a]pyridin-4-yloxy]-phenyl}-amide]"
< 10 nM,< 10 nM,"CC(C)n1cc(C(=O)Nc2ccc(Oc3cc(N4CCOCC4)cn4nccc34)c(F)c2)c(=O)n(-c2ccc(F)cc2)c1=O [Example 62, 3-(4-Fluoro-phenyl)-1-isopropyl-2,4-dioxo-1,2,3,4-tetrahydro-pyrimidine-5-carboxylic acid[3-fluoro-4-(6-morpholin-4-yl-pyrazolo[1,5-a]pyridin-4-yloxy)-phenyl]-amide]"
< 10 nM,< 10 nM,"O=C(Nc1ccc(Oc2cc(N3CCC(O)CC3)cn3nccc23)c(F)c1)c1cccn(-c2ccc(F)cc2)c1=O [Example 68, 1-(4-Fluoro-phenyl)-2-oxo-1,2-dihydro-pyridine-3-carboxylic acid{3-fluoro-4-[6-(4-hydroxy-piperidin-1-yl)-pyrazolo[1,5-a]pyridin-4-yloxy]-phenyl}-amide]"
< 10 nM,< 10 nM,"Cn1cc(Nc2cc(Oc3ccc(NC(=O)c4cccn(-c5ccc(F)cc5)c4=O)cc3F)c3ccnn3c2)cn1 [Example 79, 1-(4-Fluoro-phenyl)-2-oxo-1,2-dihydro-pyridine-3-carboxylic acid {3-fluoro-4-[6-(1-methyl-1H-pyrazol-4-ylamino)-pyrazolo[1,5-a]pyridin-4-yloxy]-phenyl}-amide]"
< 10 nM,< 10 nM,"Cn1cnc(-c2cc(Oc3ccc(NC(=O)c4cccn(-c5ccc(F)cc5)c4=O)cc3F)c3ccnn3c2)c1 [Example 88, 1-(4-Fluoro-phenyl)-2-oxo-1,2-dihydro-pyridine-3-carboxylic acid {3-fluoro-4-[6-(1-methyl-1H-imidazol-4-yl)-pyrazolo[1,5-a]pyridin-4-yloxy]-phenyl}-amide]"
,10 to 100 nM,"CC(C)n1cc(C(=O)Nc2ccc(Oc3cc(NC(=O)N4CCN(C)CC4)cn4nccc34)c(F)c2)c(=O)n(-c2ccc(F)cc2)c1=O [Example 150, 3-(4-Fluoro-phenyl)-1-isopropyl-2,4-dioxo-1,2,3,4-tetrahydro-pyrimidine-5-carboxylic acid(3-fluoro-4-{6-[(4-methyl-piperazine-1-carbonyl)-amino]-pyrazolo[1,5-a]pyridin-4-yloxy}-phenyl)-amide]"
,1000 to 10000 nM,"Cn1cnc(-c2cc(Oc3ccc(Nc4ncccn4)cc3F)c3ccnn3c2)c1 [Example 152, {3-Fluoro-4-[6-(1-methyl-1H-imidazol-4-yl)-pyrazolo[1,5-a]pyridin-4-yloxy]-phenyl}-pyrimidin-2-yl-amine]"
,1000 to 10000 nM,"Cn1cnc(-c2cc(Oc3ccc(NS(=O)(=O)c4ccc(F)cc4)cc3F)c3ccnn3c2)c1 [Example 153, 4-Fluoro-N-{3-fluoro-4-[6-(1-methyl-1H-imidazol-4-yl)-pyrazolo[1,5-a]pyridin-4-yloxy]-phenyl}-benzenesulfonamide]"
,10 to 100 nM,"Cc1ccc(C(=O)Nc2ccc(Oc3cc(Br)cn4nccc34)c(F)c2)c(=O)n1-c1ccc(F)cc1 [Example 157, 1-(4-Fluoro-phenyl)-6-methyl-2-oxo-1,2-dihydro-pyridine-3-carboxylic acid [4-(6-bromo-pyrazolo[1,5-a]pyridin-4-yloxy)-3-fluoro-phenyl]-amide]"

Compound,IC50 [1],IC50 [2]
"1-Ethyl-3-(4-fluoro-phenyl)-2,4-dioxo-1,2,3,4-tetrahydro-pyrimidine-5-carboxylic acid {3-fluoro-4-[6-(1H-pyrazol-3-yl)-pyrazolo[1,5-a]pyridin-4-yloxy]-phenyl}-amide [Example 40]",< 10 nM,< 10 nM
